Measurements published in US20090197805A1, “Insulin receptor antagonists and related compositions, uses and methods” (Novo Nordisk A/S, priority 2005, published 2009).
Ends that are not written are not given here.

Legend:
[1] = system: Zucker Obese rats; assay: Glucose profile after i.v. S661 followed after different times by i.p. human insulin; type: in vivo, rat; settings: 30 nmol/kg S661 i.v. at various times before 30 nmol/kg human insulin i.p., FIG. 3
Procedure: FIG. 3. Glucose profile in ZO rats after i.v. administration of Insulin Receptor Antagonist, S661, followed after different times by i.p. administration of human insulin.
Eight groups of 5 to 7 male, 15 week old Zucker Obese rats (Charles River) with an average weight of about 550 gram were kept on ad lib Purina 5008 and ad lib drinking water and fasted overnight for the experiment. PIRA S661 in PBS was administered i.v. at 30 nmol/kg at various times before the i.p. administration of 30 nmol/kg human insulin in PBS.

[2] = system: Zucker Obese rats; assay: Glucose profile after i.v. S661 at different doses followed by i.p. human insulin; type: in vivo, rat
Procedure: FIG. 2. Glucose profile in Zucker obese (ZO) male rats after intravenous (i.v.) administration of different doses of peptidic insulin receptor antagonist S661, followed by intraperitoneal (i.p.) administration of human insulin.
Nine groups of 5 or 6 male, 16 week old Zucker Obese rats (Charles River) with an average weight of about 580 gram were kept on ad lib Purina 5008 and ad lib drinking water and fasted overnight for the experiment. The glucose level was tested at 20 minutes and 10 minutes prior to administration of the PIRA designated S661 (described above) Intravenous (i.v.) administration of different doses of S661 in PBS or vehicle was followed by (10 minutes after administration of S661) intraperitoneal (i.p.) administration of different amounts of human insulin in PBS or vehicle. Blood glucose levels were measured at 10, 20, 30, 40, 60, 80, 120, and 180 minutes after injection of insulin.

[3] = molecular target: IGF1 receptor (Homo sapiens, UniProt P08069); assay: Competition binding assay with 125I-labeled cognate ligand, IGF1 receptor; settings: 125I-labeled ligand, affinity too low to be measured
Procedure: (§1) To test the selectivity of PIRA S661 for the insulin receptor versus a related receptor, the IGF1 receptor, competition binding assays were carried out using both receptors and their cognate ligands in ^125I-labeled form.

[4] = system: SGBS cells; assay: PIRA antagonist assay: insulin stimulated 14C-glucose uptake; type: cell-based; settings: SGBS cells (human adipocyte cell line); FIG. 1
Procedure: In order to identify an insulin receptor binding peptide as an antagonist (PIRA), a candidate peptide can be tested in a glucose uptake assay in e.g. SGBS cells (a human adipocyte cell line) or primary rodent adipocytes. Briefly, the cells are incubated with various concentrations of insulin and subsequently ^14C-glucose uptake is measured. To test a peptide for antagonist properties, a submaximally stimulating concentration of insulin (e.g., resulting in half maximal insulin response) is added and also a dilution series of the peptide to be tested. If the peptide is a PIRA, the insulin induced response is reduced to or below the baseline response with increasing concentration of PIRA and the potency of the PIRA can be estimated from the concentration of PIRA necessary to observe the reduction in response.

[5] = molecular target: insulin receptor (Homo sapiens, UniProt P06213); assay: Competition binding assay with 125I-labeled cognate ligand, insulin receptor; settings: 125I-labeled ligand
Procedure: as §1

[6] = 3 nmol/kg S661 i.v., 30 nmol/kg insulin i.p., Zucker Obese rats

affinity for the insulin receptor relative to human insulin [5]: 48 % of that of human insulin
Substance: GSLDESFYDWFERQLGGGSGGSSLEEEWAQIQCEVWGRGCPSY-amide (GSLDESFYDWFERQLGGGSGGSSLEEEWAQIQCEVWGRGCPSY-NH2; cysteine pairing not given here) [S661, peptidic insulin receptor antagonist]
time after administration at which still an effective antagonist (blood glucose) [1]: ≥ 6 h | glucose levels as compared to control [2, 6]: slightly higher | glucose levels as compared to insulin alone [2, 6]: significantly higher levels | blood glucose levels versus insulin alone or only vehicle ([2]; male Zucker Obese rats, fasted, S661 i.v. 10 minutes before i.p. human insulin, FIG. 2): significantly higher | affinity for the IGF1 receptor relative to IGF1 [3]: at least 200.000 fold lower than that of IGF1 | effect on submaximally insulin stimulated glucose uptake [4]: inhibition of submaximally insulin stimulated glucose uptake
